Reference: ChEMBL document CHEMBL1129525 (J Med Chem, 1996)

Key:
[1] = system: Toxoplasma gondii; experiment: Inhibition of Toxoplasma gondii cell growth; type: functional, organism-based
[2] = target: T1, Dihydrofolate reductase (Pneumocystis carinii, UniProt P16184)
T1 sequence (P16184 whole entry): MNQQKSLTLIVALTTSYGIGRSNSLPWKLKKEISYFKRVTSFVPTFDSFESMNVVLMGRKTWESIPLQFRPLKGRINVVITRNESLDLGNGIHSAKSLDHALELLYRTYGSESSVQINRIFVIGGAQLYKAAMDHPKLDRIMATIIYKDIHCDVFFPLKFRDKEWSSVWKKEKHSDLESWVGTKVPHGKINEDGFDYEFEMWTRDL
Description: Inhibitory activity against Pneumocystis carinii dihydrofolate reductase

[3] = target: T2, Bifunctional dihydrofolate reductase-thymidylate synthase (Toxoplasma gondii, UniProt Q07422)
T2 sequence (Q07422 whole entry): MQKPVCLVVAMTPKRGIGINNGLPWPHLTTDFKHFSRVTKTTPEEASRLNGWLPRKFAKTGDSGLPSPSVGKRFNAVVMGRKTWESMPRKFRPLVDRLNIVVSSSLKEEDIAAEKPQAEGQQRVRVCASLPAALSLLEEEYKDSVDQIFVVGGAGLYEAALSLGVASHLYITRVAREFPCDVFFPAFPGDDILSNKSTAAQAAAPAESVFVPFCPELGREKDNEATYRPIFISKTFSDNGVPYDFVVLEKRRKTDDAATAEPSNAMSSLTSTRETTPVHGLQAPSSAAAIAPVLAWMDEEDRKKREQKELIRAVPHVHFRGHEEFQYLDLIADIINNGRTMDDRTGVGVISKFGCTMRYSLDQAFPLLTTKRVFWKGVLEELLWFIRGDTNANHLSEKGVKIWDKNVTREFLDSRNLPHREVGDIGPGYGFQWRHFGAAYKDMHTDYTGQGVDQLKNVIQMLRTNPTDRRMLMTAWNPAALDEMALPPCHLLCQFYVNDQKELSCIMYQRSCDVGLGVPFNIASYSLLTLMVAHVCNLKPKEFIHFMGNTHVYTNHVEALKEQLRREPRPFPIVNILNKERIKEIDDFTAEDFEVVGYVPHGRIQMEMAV
Description: Inhibitory activity against Toxoplasma gondii dihydrofolate reductase

[4] = target: T3, Dihydrofolate reductase (Rattus norvegicus, UniProt Q920D2)
T3 sequence (Q920D2 whole entry): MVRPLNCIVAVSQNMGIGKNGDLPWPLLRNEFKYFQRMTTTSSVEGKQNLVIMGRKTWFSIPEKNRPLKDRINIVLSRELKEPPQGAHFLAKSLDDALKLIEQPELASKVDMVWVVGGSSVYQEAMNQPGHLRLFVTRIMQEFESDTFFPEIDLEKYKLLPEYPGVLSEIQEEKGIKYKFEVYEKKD
Description: Inhibitory activity against rat liver dihydrofolate reductase

[5] = system: Toxoplasma gondii; experiment: Inhibitory activity against Toxoplasma gondii cell growth(ca denotes calculated value); type: functional, organism-based

SMILES | IC50 [2] [nM] | IC50 [4] [nM] | IC50 [1] [nM] | IC50 [3] [nM] | IC50 [5] [nM]
COc1ccc(SCc2cnc3nc(N)nc(N)c3n2)cc1OC | 58200 | 36300 | 5000 | 23200 | –
Nc1nc(N)c2cc(CNc3ccc(Cl)cc3)cnc2n1 | 970 | 720 | 4000 | 300 | –
COc1cc(NCc2cnc3nc(N)nc(N)c3c2C)cc(OC)c1 | 49 | 31 | 60 | 3.5 | –
Cc1c(CSc2cccc3ccccc23)cnc2nc(N)nc(N)c12 | 290 | 550 | 40 | 30 | –
COc1ccc(C)c(NCc2cnc3nc(N)nc(N)c3c2C)c1 | 38 | 150 | 30 | 23 | –
CCOc1ccc(OCC)c(NCc2cnc3nc(N)nc(N)c3c2C)c1 | 125 | 370 | 60 | 22 | –
COc1ccc(C)cc1NCc1cnc2nc(N)nc(N)c2c1C | 68 | 160 | 50 | 15 | –
COc1ccc(NCc2cnc3nc(N)nc(N)c3c2C)cc1OC | 51 | 6.5 | 600 | 2.7 | –
COc1cc(NCc2ccc3nc(N)nc(N)c3c2C)cc(OC)c1OC [TRIMETREXATE] | – | – | – | – | 20

More lines, main results first:

IC50 [2] [nM] | IC50 [4] [nM] | SMILES | IC50 [1] [nM] | IC50 [3] [nM] | IC50 [5] [nM]
30 | 120 | Cc1ccc(C)c(NCc2cnc3nc(N)nc(N)c3c2C)c1 | 10 | 16 | –
> 3000 | > 3000 | COc1ccc(C)c(NCc2cnc3nc(N)nc(N)c3n2)c1 | 1000 | 440 | –
15800 | 5700 | COc1cccc(C)c1NCc1cnc2nc(N)nc(N)c2n1 | 5000 | 1850 | –
42100 | 14300 | Nc1nc(N)c2nc(CSc3ccc(Cl)cc3)cnc2n1 | > 10000 | 16800 | –
167 | 530 | CCOc1ccc(OCC)c(N(C)Cc2cnc3nc(N)nc(N)c3c2C)c1 | 60 | 29 | –
340 | 600 | COc1cccc(SCc2cnc3nc(N)nc(N)c3c2C)c1 | 200 | 110 | –
